We go through eight compounds from patent US20250073217A1 (priority 2022, published 2025).

Like-named read-outs stand apart in the source and are kept apart here.

The target in data set [1] is T1, μ (MOP) (h) (Homo sapiens, UniProt P35372). The format is cell-based.
A further data set deals with T2, α2B(h) (Homo sapiens, UniProt P18089).
T2 sequence (P18089 1-450): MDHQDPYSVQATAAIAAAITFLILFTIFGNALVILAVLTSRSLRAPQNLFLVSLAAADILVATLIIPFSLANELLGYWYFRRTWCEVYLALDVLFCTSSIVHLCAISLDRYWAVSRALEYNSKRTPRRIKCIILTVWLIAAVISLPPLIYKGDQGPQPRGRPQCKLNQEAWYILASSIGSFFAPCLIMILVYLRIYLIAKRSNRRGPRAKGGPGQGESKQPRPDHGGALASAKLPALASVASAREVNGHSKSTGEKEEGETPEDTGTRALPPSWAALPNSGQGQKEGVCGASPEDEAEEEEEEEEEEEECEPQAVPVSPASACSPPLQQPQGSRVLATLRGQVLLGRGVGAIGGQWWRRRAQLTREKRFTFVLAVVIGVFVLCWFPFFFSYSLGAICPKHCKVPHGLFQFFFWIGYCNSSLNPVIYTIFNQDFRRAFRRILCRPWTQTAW
The format is binding.

The next data set has as its target κ (KOP) (Rattus norvegicus, UniProt P34975). The format is binding.
The test system of data set [2] is L-DOPA induced dyskinesias. The experiment in a line: L-DOPA induced dyskinesias, Primate in vivo model.
For data set [3], the system named is CD-1 mice. The experiment in a line: Mouse Tail Flick Test. It is filed as in vivo. The settings on record: compound 1 10 mg/kg IP, 10 minutes later Morphine 10 mg/kg SC, versus Morphine alone; FIGS. 2A-2C. (Thermal pain tests record how soon the animal reacts.)
The test system of another data set is animal models. The experiment in a line: Toxicity in animal models. The format is in vivo. The settings on record: many animal models, even at high concentrations. The text has this: Toxicity: The Compound 1 was studied for its toxicity in many animal models.
The next data set relates to plasma proteins. The experiment in a line: Binding to plasma proteins. It is filed as in vitro ADME.
A further data set concerns MDR1-MDCK cells. The experiment in a line: MDR1-MDCK Permeability and Identification of P-gp Substrate (Bi-directional). The format is in vitro ADME, canine. The following applies: for efflux ratio: minus inhibitor (absence of cyclosporin A). How it is done: MDR1-MDCK Permeability and Identification of P-gp Substrate (Bi-directional): Madin-Darby canine kidney (MDCK) cells are an epithelial cell line of canine kidney origin. These cells can be stably transfected to express active P-glycoprotein (MDR1-MDCK) and are ideal for studying drug efflux. Test compound was added to either the apical or basolateral side of a confluent monolayer of MDR1-MDCK cells and permeability was measured by monitoring the appearance of the test compound on the opposite side of the monolayer using LC-MS/MS. The efflux ratio (ER) was calculated from the ratio of B-A and A-B permeabilities. Experiments were performed in the absence and presence of a P-glycoprotein (P-gp) inhibitor (cyclosporin A (10 μM)) to determine whether the compound was subject to P-gp mediated efflux.
Experimental Procedure: MDR1-MDCK cells obtained from the NIH (Rockville, MD, USA) were used between passage numbers 6-30. Cells were seeded onto Millipore Multiscreen Transwell plates at 3.4×10^5 cells/cm^2. The cells were cultured in DMEM and media was changed on day 3. On day 4 the permeability study was performed. Cell culture and assay incubations were carried out at 37° C. in an atmosphere of 5% CO2 with a relative humidity of 95%. […]
The dosing solutions were prepared by diluting test compound with assay buffer to give a final test compound concentration of 10 μM (final DMSO concentration of 1% v/v). […] Test compound permeability was measured on two occasions, in the absence and in the presence of a P-gp inhibitor on both sides of the monolayer. […]
For assessment of A-B permeability. […] Test compound permeability was assessed in duplicate. […] Test and control compounds were quantified by LC-MS/MS cassette analysis using an 8-point calibration with appropriate dilution of the samples. […] The starting concentration (C0) was determined from the dosing solution and the experimental recovery calculated from C0 and both apical and basolateral compartment concentrations. […]

In a further data set the target is CYP2C8 (Homo sapiens, UniProt P10632). The experiment in a line: CYP2C8 Inhibition, human liver microsomes, paclitaxel. The settings on record: 0.1 μM-25 μM. (Liver microsomes are a subcellular fraction often used to study metabolism.)
CYP2C8, sequence (P10632 whole entry): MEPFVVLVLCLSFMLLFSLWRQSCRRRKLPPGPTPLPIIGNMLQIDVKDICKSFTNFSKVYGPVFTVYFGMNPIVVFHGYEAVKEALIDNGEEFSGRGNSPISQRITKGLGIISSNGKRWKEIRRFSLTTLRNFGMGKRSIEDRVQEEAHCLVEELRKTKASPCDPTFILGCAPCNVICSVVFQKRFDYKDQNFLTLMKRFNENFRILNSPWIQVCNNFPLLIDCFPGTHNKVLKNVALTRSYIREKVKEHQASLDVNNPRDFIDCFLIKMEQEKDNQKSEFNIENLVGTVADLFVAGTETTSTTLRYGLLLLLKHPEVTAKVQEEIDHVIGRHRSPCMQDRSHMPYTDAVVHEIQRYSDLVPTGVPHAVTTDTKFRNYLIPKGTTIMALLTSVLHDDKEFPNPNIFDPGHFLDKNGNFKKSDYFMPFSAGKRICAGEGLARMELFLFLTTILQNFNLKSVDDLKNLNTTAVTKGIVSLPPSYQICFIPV
Data set [4] is described as follows: Brain Tissue Binding, equilibrium dialysis, mouse. The settings on record: fraction unbound could not be determined. On the technique in general: In equilibrium dialysis only unbound substance equilibrates across the membrane.
In another data set the target is CYP2C9 (Homo sapiens, UniProt P11712). The experiment in a line: CYP2C9 Inhibition, human liver microsomes, tolbutamide. The settings on record: 0.1 μM-25 μM.
CYP2C9, sequence (P11712 whole entry): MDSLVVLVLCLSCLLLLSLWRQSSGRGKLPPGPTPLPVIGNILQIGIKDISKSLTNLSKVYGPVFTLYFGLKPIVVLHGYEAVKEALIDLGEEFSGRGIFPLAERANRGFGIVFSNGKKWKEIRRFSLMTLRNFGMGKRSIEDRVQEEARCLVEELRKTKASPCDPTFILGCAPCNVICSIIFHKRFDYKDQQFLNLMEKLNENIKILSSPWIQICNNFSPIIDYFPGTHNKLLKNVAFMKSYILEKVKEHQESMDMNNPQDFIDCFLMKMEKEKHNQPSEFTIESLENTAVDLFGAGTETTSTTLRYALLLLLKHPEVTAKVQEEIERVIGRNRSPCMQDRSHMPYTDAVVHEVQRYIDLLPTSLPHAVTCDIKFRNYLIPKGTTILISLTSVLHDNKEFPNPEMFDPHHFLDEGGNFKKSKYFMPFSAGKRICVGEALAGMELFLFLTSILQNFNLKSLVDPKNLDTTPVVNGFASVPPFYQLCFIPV
Another data set deals with T3, CYP2D6 (Homo sapiens, UniProt P10635).
T3 construct: from tissue
T3 sequence (P10635 whole entry): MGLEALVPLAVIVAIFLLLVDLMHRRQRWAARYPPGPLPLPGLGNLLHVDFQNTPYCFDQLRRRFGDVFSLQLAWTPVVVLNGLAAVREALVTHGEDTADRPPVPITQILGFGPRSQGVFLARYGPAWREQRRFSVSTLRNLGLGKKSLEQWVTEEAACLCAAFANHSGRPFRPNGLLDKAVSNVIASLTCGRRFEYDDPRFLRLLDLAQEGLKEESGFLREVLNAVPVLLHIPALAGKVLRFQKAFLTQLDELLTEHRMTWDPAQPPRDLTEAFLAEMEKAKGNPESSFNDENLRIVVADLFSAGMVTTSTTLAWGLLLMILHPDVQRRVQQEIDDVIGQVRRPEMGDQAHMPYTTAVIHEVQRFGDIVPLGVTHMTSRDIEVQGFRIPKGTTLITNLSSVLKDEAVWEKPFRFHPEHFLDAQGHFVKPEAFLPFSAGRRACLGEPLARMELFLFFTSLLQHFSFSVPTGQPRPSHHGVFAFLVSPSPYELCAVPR
The experiment in a line: Time Dependent Inhibition of CYP2D6 (Dextromethorphan; IC50 Shift). It is filed as in vitro ADME. The following applies: for CYP2D6 inhibition: at 25 μM. How it is done:
The probe substrate dextromethorphan (5 μM) and NADPH (1 mM) were then added (final DMSO concentration 0.3%) and the samples incubated for 5 min at 37° C. The selective time dependent CYP2D6 inhibitor, paroxetine, was screened alongside the test compounds as a positive control. The reactions were terminated by the addition of an aliquot of the incubation into methanol. The samples were centrifuged at 2500 rpm for 30 min at 4° C., and aliquots of the supernatant are diluted with formic acid in deionised water (final concentration 0.1%) containing internal standard prior to analysis of dextrorphan by LC-MS/MS.

Data set [5] has as its target CYP2B6 (Homo sapiens, UniProt P20813). The following applies: 0.1 μM-25 μM, human liver microsomes.
A further data set has as its target hERG potassium channel (Homo sapiens, UniProt Q12809). The experiment in a line: hERG Channel Inhibition (IC50 Determination), IonWorks automated patch clamp, CHO cells.
For data set [6], the target named is T4, CYP3A4 (Homo sapiens, UniProt P08684). The following applies: 0.1 μM-25 μM, human liver microsomes, substrate midazolam.
T4 sequence (P08684 whole entry): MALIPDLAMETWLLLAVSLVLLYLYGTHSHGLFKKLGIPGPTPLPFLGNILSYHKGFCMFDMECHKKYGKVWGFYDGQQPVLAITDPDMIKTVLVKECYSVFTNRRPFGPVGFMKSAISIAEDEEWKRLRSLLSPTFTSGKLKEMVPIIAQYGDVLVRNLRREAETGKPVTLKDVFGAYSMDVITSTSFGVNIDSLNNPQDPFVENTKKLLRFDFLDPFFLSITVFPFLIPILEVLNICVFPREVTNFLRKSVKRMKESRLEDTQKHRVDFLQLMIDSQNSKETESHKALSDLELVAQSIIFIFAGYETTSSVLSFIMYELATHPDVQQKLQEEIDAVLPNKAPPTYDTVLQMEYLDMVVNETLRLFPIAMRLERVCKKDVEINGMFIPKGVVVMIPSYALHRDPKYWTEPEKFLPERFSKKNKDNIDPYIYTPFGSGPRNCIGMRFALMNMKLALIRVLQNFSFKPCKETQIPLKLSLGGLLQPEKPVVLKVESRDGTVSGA
In data set [7] the test system is CD-1 mice. The experiment in a line: Mice conditioned place preference (CPP) chamber test. It is filed as in vivo. The settings on record: Compound 1 10 mg/kg IP, 10 minutes later Morphine 10 mg/kg SC, versus Morphine alone; FIG. 1.
For data set [8], the system named is L-DOPA induced dyskinesias. The experiment in a line: L-DOPA induced dyskinesias, Rodent in vivo model.
The next data set relates to Caco-2 cells. The experiment in a line: Caco-2 Permeability (A-B or Bi-directional).
Data set [9] has as its system CYP1A2. The settings on record: human hepatocytes, 72 hr, 0.4-100 μM, any concentration tested.
Data set [10] deals with CYP1A2 (Homo sapiens, UniProt P05177). The following applies: 0.1 μM-25 μM, human liver microsomes.
CYP1A2 (Homo sapiens, UniProt P05177), sequence (P05177 whole entry): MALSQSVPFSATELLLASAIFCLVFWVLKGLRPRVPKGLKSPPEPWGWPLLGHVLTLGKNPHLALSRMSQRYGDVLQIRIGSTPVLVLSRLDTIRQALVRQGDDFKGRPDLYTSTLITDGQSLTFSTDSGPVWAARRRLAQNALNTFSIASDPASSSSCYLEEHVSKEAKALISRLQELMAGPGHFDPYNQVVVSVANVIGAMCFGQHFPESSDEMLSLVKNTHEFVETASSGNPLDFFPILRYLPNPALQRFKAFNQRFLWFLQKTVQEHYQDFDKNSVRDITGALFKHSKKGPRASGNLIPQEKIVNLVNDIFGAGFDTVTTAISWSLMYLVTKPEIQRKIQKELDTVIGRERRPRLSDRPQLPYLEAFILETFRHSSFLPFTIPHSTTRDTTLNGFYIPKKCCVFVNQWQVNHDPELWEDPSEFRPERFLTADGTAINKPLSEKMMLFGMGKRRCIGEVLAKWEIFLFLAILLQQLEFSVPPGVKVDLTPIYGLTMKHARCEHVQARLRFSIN
Data set [11] concerns CYP2B6. The following applies: human hepatocytes, 72 hr, at 100 μM.
Data set [12] can be described thus: Bioavailability and Stability. It is filed as in vitro ADME. An excerpt:
Bioavailability and Stability: Compounds of the invention were studied in detail, using several parameters to evaluate bioavailability and stability.

Data set [13] deals with CYP3A4. The settings on record: human hepatocytes, 72 hr, 0.4-100 μM, any concentration tested.
The nature of data set [14]: Brain Tissue Binding, equilibrium dialysis, rat. The settings on record: brain homogenate.
In data set [15] the target is T4, CYP3A4. The following applies: 0.1 μM-25 μM, human liver microsomes, substrate testosterone.
Data set [16] has as its target T1, μ (MOP) (h). It is filed as binding.
Another data set deals with δ2 (DOP) (h) (Homo sapiens, UniProt P41143). It is filed as binding.
δ2 (DOP) (h), sequence (P41143 whole entry): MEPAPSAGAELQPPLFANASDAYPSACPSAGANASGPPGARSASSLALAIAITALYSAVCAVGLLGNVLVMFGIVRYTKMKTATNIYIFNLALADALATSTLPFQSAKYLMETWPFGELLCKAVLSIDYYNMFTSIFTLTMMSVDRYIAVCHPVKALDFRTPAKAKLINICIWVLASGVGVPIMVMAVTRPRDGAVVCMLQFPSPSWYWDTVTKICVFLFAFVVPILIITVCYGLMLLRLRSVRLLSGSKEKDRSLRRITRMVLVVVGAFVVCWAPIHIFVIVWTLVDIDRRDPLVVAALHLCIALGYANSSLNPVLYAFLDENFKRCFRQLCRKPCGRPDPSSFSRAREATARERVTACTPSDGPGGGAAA

T1 sequence (P35372 whole entry): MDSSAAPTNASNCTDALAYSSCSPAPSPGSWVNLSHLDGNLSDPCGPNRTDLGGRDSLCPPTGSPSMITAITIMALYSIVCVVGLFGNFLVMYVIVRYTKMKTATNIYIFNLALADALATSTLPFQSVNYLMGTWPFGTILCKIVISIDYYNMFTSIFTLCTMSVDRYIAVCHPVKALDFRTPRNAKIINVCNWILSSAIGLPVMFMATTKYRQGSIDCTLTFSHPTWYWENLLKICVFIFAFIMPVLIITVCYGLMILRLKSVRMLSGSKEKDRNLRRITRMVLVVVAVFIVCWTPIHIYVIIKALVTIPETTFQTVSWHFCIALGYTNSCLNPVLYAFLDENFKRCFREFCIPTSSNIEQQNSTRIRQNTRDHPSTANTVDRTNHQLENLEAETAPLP
κ (KOP), sequence (P34975 whole entry): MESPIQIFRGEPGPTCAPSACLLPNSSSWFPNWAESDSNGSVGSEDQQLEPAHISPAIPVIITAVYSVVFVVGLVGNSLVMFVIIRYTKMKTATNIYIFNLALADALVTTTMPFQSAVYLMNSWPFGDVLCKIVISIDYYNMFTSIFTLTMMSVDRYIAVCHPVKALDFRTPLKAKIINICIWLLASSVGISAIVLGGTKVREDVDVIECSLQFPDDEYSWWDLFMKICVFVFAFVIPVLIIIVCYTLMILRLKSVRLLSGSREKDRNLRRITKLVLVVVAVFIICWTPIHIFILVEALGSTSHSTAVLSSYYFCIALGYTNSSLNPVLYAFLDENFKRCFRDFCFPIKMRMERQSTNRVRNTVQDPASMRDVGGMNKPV
hERG potassium channel, sequence (Q12809 whole entry): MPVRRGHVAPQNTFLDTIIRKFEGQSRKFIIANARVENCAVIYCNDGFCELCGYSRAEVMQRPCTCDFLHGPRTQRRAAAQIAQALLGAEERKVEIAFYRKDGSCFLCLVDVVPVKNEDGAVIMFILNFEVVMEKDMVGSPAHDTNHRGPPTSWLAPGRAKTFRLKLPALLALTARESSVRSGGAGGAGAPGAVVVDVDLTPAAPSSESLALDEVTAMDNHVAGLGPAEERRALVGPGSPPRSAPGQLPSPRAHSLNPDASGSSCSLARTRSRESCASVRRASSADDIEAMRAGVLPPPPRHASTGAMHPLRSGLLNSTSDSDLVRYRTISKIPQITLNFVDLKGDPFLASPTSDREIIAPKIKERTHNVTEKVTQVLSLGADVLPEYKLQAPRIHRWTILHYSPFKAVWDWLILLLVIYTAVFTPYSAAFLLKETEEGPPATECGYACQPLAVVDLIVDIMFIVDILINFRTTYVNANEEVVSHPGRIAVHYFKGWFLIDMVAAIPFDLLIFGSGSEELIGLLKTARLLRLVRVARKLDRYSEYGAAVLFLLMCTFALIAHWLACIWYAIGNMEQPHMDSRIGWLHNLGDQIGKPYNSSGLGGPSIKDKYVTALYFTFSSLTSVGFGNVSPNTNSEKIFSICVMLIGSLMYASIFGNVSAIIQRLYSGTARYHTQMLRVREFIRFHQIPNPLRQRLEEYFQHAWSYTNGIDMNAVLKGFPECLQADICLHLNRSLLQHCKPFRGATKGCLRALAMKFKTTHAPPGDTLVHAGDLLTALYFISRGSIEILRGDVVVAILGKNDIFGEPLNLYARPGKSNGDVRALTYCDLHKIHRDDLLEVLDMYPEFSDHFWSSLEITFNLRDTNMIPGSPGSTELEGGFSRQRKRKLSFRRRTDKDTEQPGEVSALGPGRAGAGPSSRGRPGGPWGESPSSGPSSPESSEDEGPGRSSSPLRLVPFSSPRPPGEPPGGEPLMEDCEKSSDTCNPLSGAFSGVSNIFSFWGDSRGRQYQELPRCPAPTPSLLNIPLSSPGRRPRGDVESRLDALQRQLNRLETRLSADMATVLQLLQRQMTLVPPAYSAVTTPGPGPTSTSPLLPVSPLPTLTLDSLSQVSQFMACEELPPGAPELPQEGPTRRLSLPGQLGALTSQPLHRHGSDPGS

Turning to `O=C(CCCCCCCBr)NC1CCN(CCc2ccccc2)CC1` [8-bromo-N-(1-phenethylpiperidin-4-yl)octanamide], the nH worked out at 0.4 on μ (MOP) (h) [1], 0.8 on α2B(h) and 0.5 on κ (KOP).
By efflux ratio is commonly meant the permeability from basolateral to apical divided by that in the opposite direction, in the common usage. As usually defined, the IC50 is the point on the concentration scale where inhibition reaches its midpoint. As usually defined, the fraction unbound is the share of the substance not bound to proteins or other matrix. With `CCC(=O)NC1CCN(CCc2ccccc2)CC1` [Compound 1, N-(1-phenethylpiperidin-4-yl)propionamide], the “inhibition of L-DOPA induced dyskinesias” value in [2] and in data set [8] (Rodent in vivo model) was “significant inhibition” throughout. Further, in the data set with CD-1 mice [3], the “analgesic property (tail flick, 52° C. water)” value is “almost identical analgesic property compared to morphine alone”. Also, the toxicity entry in the data set with animal models is listed as “virtually no toxicity”. Besides, the “binding to plasma proteins” value with plasma proteins is “weak, or no noticeable binding”. Moreover, the “permeability in the MDCK assay” value in the data set with MDR1-MDCK cells (10 μM, pH 7.4, 60 min) is on record as “highly permeable”. The figures for the efflux ratio in the data set on MDR1-MDCK cells and with Caco-2 cells (pH gradient (pH 6.8/7.4)) were 1.48 and 2.70, respectively. The CYP2C8 inhibition entry on CYP2C8 was “No significant inhibition”. Also, the binding in mouse entry in data set [4] is given as “no binding at all could be detected”. The CYP2C9 inhibition entry at CYP2C9 was “No significant inhibition”. The IC50 at CYP2D6 (0 minute incubation) and against hERG potassium channel was > 25 µM throughout. For the same compound, the “time-dependent CYP2D6 inhibition” value at CYP2D6 (IC50 shift, 30 min pre-incubation ± NADPH) is given as “no evidence of time-dependent CYP2D6 inhibition”. The CYP2D6 inhibition entry on CYP2D6 (0 minute incubation) and at CYP2D6 (30 minute plus NADPH incubation) was “approximately 40%” throughout. Moreover, the CYP2B6 inhibition result on CYP2B6 [5] is reported as “No significant inhibition”. Besides, on CYP3A4 [6], the “CYP3A4 inhibition (midazolam)” value was “No significant inhibition”. The “time in chamber associated with morphine administration (CPP)” value in the data set on CD-1 mice [7] is recorded as “significantly less time”. Further, the “effectiveness versus amantadine against L-dopa-induced dyskinesia” value in data set [8] (comparison with amantadine, model not specified (Rodent and Primate models named)) was “significantly more effective than amantadine”. Further, the “permeability in the Caco-2 assay” value with Caco-2 cells (10 μM, pH gradient 6.8/7.4, 120 min) is recorded as “highly permeable in both directions”. Moreover, in the data set with CYP1A2 [9], the “CYP1A2 mRNA expression” value is recorded as “didn't cause a statistically significant change”. Further, the CYP1A2 inhibition entry on CYP1A2 [10] is reported as “No significant inhibition”. Further, the “CYP2B6 mRNA expression” value with CYP2B6 [11] is on record as “slight, yet statistically significant decrease”. For the same compound, in data set [12], the bioavailability entry is “highly bioavailable”. For the same compound, the “CYP3A4 mRNA expression” value with CYP3A4 [13] is recorded as “didn't cause a statistically significant change”. The fraction unbound at 2 hr, 5 μM in data set [14] was found to be 0.249. For the same compound, on CYP3A4 [15], the “CYP3A4 inhibition (testosterone)” value is “No significant inhibition”.
For `CCC(=O)NC1CCN(CCC(=O)OC)CC1` [Methyl 3-(4-propionamidopiperidin-1-yl) propanoate], the nH on μ (MOP) (h) [16] came to 0.5; at α2B(h), 1; at κ (KOP) it was 0.8.
For `CCC(=O)NC1CCN(CCc2cccs2)CC1` [N-(1-(2-(thiophen-2-yl)ethyl)piperidin-4-yl)propionamide], the nH at μ (MOP) (h) [1] is listed as 0.6; on δ2 (DOP) (h), 0.9; at α2B(h) it was 1.2; at κ (KOP) it was 0.6.
Turning to `O=C(NC1CCN(CCc2ccccc2)CC1)c1ccccc1` [N-(1-phenethylpiperidin-4-yl)benzamide], the nH worked out at 0.7 on δ2 (DOP) (h), 0.9 at μ (MOP) (h) [16], 1.3 at α2B(h) and 0.6 at κ (KOP).
The like results for `O=C(NC1CCN(CCc2ccccc2)CC1)c1ccco1` [N-(1-phenethylpiperidin-4-yl)furan-2-carboxamide] were, in that order, 1, 0.8, 0.7 and 1.1.
For `O=C(NC1CCN(CCc2ccccc2)CC1)c1ccoc1` [N-(1-phenethylpiperidin-4-yl)furan-3-carboxamide], the nH at δ2 (DOP) (h) is recorded as 1; on μ (MOP) (h) [16], 0.8; at α2B(h), 0.7; on κ (KOP), 1.1.
Consider `COc1cc2nc(N3CCN(C(=O)c4ccco4)CC3)nc(N)c2cc1OC` [prazosin, reference compound], for which the efflux ratio entry in the data set with MDR1-MDCK cells is “showing efflux”.
